According to patent US20260297060A1, “COMPOUNDS FOR THE DEGRADATION OF MUTANT BRAF” (C4 THERAPEUTICS, INC., priority 2023, published 2026):

System: A375 human melanoma xenografts
Test: In vivo therapeutic efficacy in A375 human melanoma xenografts (tumor volume, T/C, TGI), Example 14
Design: species or system human tumor in female BALB/c nude mice
Conditions: for Tumor volume: mean ± SEM; for T/C / TGI: PG-D21
Method: Agents were tested in the A375 human melanoma xenografts. Compound 26 and Compound 141 were administered to BALB/c nude mice bearing A375 tumors from PG-DO and dosed via PO twice a day (BID) or third a day (TIP) or dosed P daily (QD) from PG-D. Dabrafenib was administered to BALB/c nude mice bearing A375 tumors from PG-D1 and dosed via P daily (QD). Compound 26 was dosed at 1.5 mg/kg (QD), 2 mg/kg (TID), 3 mg/kg (BID), 6 mg/kg (QD) and 10 mg/kg (BID) for 21 days. Compound 141 was dosed at 0.75 mg/kg (BID), 1 mg/kg (TID), 1.5 mg/kg (BID), 3 mg/kg (QD) and 5 mg/kg (BID) for 21 days. Dabrafenib was dosed at 100 mg/kg for 21 days. This study was non-GLP.
One hundred and thirty-eight female BALB/c nude Mus Musculus mice procured from Shanghai Lingchang Biological Science and Technology Co., LTD between the ages of six to eight weeks and with body weight between eighteen and twenty-two grams were used for the study. A spare mouse was also procured.
The A375 tumor cells were maintained in vitro in DMEM medium supplemented with 10% fetal bovine serum and 1% Penicillin-Streptomycin at 37° C. in an atmosphere of 5% CO2 in air. The tumor cells were routinely sub-cultured twice weekly. The cells growing in an exponential growth phase were harvested and counted for tumor inoculation.
Each mouse was inoculated subcutaneously at the right flank with A375 cells (5×10^6) in 0.2 mL of PBS supplemented with Matrigel (PBS: Matrigel=1:1) for tumor development. Animals were grouped for efficacy study on day 15 after tumor inoculation when the average tumor volume reached 220 mm^3. The test articles administration and the animal numbers in each group are shown in the above experimental Table 75.
At the time of routine monitoring, the animals were checked daily for any effects of tumor growth and treatments on normal behavior such as mobility, food and water consumption (by looking only), body weight gain/loss (body weights were measured twice weekly), eye/hair matting and any other abnormal effect as stated in the protocol. Death and observed clinical signs were recorded on the basis of the numbers of animals within each subset.
Prior to the onset of drug treatment, mice were measured for tumor size in two dimensions using a caliper, and the tumor volume (mm^3) was calculated using formula V=0.5 a×b^2 where a and b are the long and short diameters of the tumor in mm, respectively. Mice were randomized into different treatment groups based on the tumor volume.
The major endpoint was to see if the tumor growth could be delayed or mice could be cured. The tumor size was then used for calculations of T/C value. The T/C value (in percent) is an indication of antitumor effectiveness; T and C are the mean volumes of the treated and control groups, respectively on specified day.
TGI was calculated for each group using the formula: TGI (%)=[1−(Ti−T0)/(Ci−C0)]×100; Ti is the average tumor volume of a treatment group on a given day, T0 is the average tumor volume of the treatment group on the day of treatment start, Ci is the average tumor volume of the vehicle control group on the same day with Ti, and C0 is the average tumor volume of the vehicle group on the day of treatment start.
A one-way ANOVA followed by Dunnett's multiple comparison test was performed to compare tumor volume among vehicle group (Group 1) and treatment groups (Group 2-Group 12). All data were analyzed using GraphPad Prism, ns indicates p>0.05, * indicates p<0.05, ** indicates p<0.01, *** indicates p<0.001 and **** indicates p<0.0001.
Tumor growth inhibition of Compound 26, Compound 141 and dabrafenib in the treatment of female BALB/c nude mice bearing A375 xenografts was calculated based on tumor volume measured on […]. TGI and T/C were calculated respectively and the data are detailed in Table 82.

CCN(C)S(=O)(=O)Nc1ccc(F)c(Oc2ccc3ncn(C4CC5(CCN(C6CC7(C6)CN(c6cc8c(cc6F)c(N6CCC(=O)NC6=O)nn8C)C7)CC5)C4)c(=O)c3c2)c1C#N (centres unmarked) [Compound 141, 6-[2-cyano-3-[[ethyl(methyl)sulfamoyl]amino]-6-fluoro-phenoxy]-3-[7-[2-[3-(2,4-dioxohexahydropyrimidin-1-yl)-5-fluoro-1-methyl-indazol-6-yl]-2-azaspiro[3.3]heptan-6-yl]-7-azaspiro[3.5]nonan-2-yl]-4-oxo-quinazoline]
Tumor volume (0.75 mg/kg p.o. BID x 21 days, day 0): 220 ± 16 mm^3 | Tumor volume (0.75 mg/kg p.o. BID x 21 days, day 4): 279 ± 20 mm^3 | Tumor volume (0.75 mg/kg p.o. BID x 21 days, day 7): 299 ± 25 mm^3 | Tumor volume (0.75 mg/kg p.o. BID x 21 days, day 11): 305 ± 27 mm^3 | Tumor volume (0.75 mg/kg p.o. BID x 21 days, day 14): 333 ± 29 mm^3 | Tumor volume (0.75 mg/kg p.o. BID x 21 days, day 18): 465 ± 48 mm^3 | Tumor volume (0.75 mg/kg p.o. BID x 21 days, day 21): 634 ± 67 mm^3 | Tumor volume (0.75 mg/kg p.o. BID x 21 days, day 25 (dosing-free regrowth)): 1230 ± 98 mm^3 | Tumor volume (0.75 mg/kg p.o. BID x 21 days, day 28 (dosing-free regrowth)): 1536 ± 103 mm^3 | Tumor volume (0.75 mg/kg p.o. BID x 21 days, day 32 (dosing-free regrowth)): 1821 ± 140 mm^3 | Tumor volume (0.75 mg/kg p.o. BID x 21 days, day 35 (dosing-free regrowth)): 2230 ± 178 mm^3 | Tumor volume (0.75 mg/kg p.o. BID x 21 days, day 39 (dosing-free regrowth)): 2413 ± 86 mm^3 | Tumor volume (0.75 mg/kg p.o. BID x 21 days, day 42 (dosing-free regrowth)): 2786 ± 127 mm^3 | Tumor volume (0.75 mg/kg p.o. BID x 21 days, day 46 (dosing-free regrowth)): 3213 ± 101 mm^3 | Tumor Size on PG-D21 (Mean ± SEM) (0.75 mg/kg p.o. BID × 21 days): 634 ± 67 mm^3 | T/C (0.75 mg/kg p.o. BID × 21 days): 33.7% | TGI (0.75 mg/kg p.o. BID × 21 days): 75.1% | Tumor volume (1 mg/kg p.o. TID x 21 days, day 0): 220 ± 16 mm^3 | Tumor volume (1 mg/kg p.o. TID x 21 days, day 4): 199 ± 14 mm^3 | Tumor volume (1 mg/kg p.o. TID x 21 days, day 7): 174 ± 12 mm^3 | Tumor volume (1 mg/kg p.o. TID x 21 days, day 11): 131 ± 11 mm^3 | Tumor volume (1 mg/kg p.o. TID x 21 days, day 14): 99 ± 11 mm^3 | Tumor volume (1 mg/kg p.o. TID x 21 days, day 18): 117 ± 18 mm^3 | Tumor volume (1 mg/kg p.o. TID x 21 days, day 21): 138 ± 22 mm^3 | Tumor volume (1 mg/kg p.o. TID x 21 days, day 25 (dosing-free regrowth)): 303 ± 94 mm^3 | Tumor volume (1 mg/kg p.o. TID x 21 days, day 28 (dosing-free regrowth)): 492 ± 132 mm^3 | Tumor volume (1 mg/kg p.o. TID x 21 days, day 32 (dosing-free regrowth)): 718 ± 197 mm^3 | Tumor volume (1 mg/kg p.o. TID x 21 days, day 35 (dosing-free regrowth)): 933 ± 232 mm^3 | Tumor volume (1 mg/kg p.o. TID x 21 days, day 39 (dosing-free regrowth)): 1233 ± 240 mm^3 | Tumor volume (1 mg/kg p.o. TID x 21 days, day 42 (dosing-free regrowth)): 1591 ± 302 mm^3 | Tumor volume (1 mg/kg p.o. TID x 21 days, day 46 (dosing-free regrowth)): 2017 ± 443 mm^3 | Tumor volume (1 mg/kg p.o. TID x 21 days, day 49 (dosing-free regrowth)): 2117 ± 505 mm^3 | Tumor volume (1 mg/kg p.o. TID x 21 days, day 53 (dosing-free regrowth)): 2166 ± 495 mm^3 | Tumor volume (1 mg/kg p.o. TID x 21 days, day 56 (dosing-free regrowth)): 2162 ± 633 mm^3 | Tumor Size on PG-D21 (Mean ± SEM) (1 mg/kg p.o. TID × 21 days): 138 ± 22 mm^3 | T/C (1 mg/kg p.o. TID × 21 days): 7.3% | TGI (1 mg/kg p.o. TID × 21 days): 104.9% | Tumor volume (1.5 mg/kg p.o. BID x 21 days, day 0): 220 ± 15 mm^3 | Tumor volume (1.5 mg/kg p.o. BID x 21 days, day 4): 245 ± 18 mm^3 | Tumor volume (1.5 mg/kg p.o. BID x 21 days, day 7): 213 ± 17 mm^3 | Tumor volume (1.5 mg/kg p.o. BID x 21 days, day 11): 180 ± 13 mm^3 | Tumor volume (1.5 mg/kg p.o. BID x 21 days, day 14): 159 ± 13 mm^3 | Tumor volume (1.5 mg/kg p.o. BID x 21 days, day 18): 166 ± 14 mm^3 | Tumor volume (1.5 mg/kg p.o. BID x 21 days, day 21): 208 ± 21 mm^3 | Tumor volume (1.5 mg/kg p.o. BID x 21 days, day 25 (dosing-free regrowth)): 476 ± 63 mm^3 | Tumor volume (1.5 mg/kg p.o. BID x 21 days, day 28 (dosing-free regrowth)): 773 ± 76 mm^3 | Tumor volume (1.5 mg/kg p.o. BID x 21 days, day 32 (dosing-free regrowth)): 946 ± 93 mm^3
